The source of these data is ChEMBL document CHEMBL1124133, “Synthesis and hypolipidemic activity of 2-substituted isobutyric acid derivatives” (1988).

What all share (type): functional
Conditions in all cases: route oral

For experiment [1], the system named is Rattus norvegicus. The experiment can be described thus: Hypolipidemic effects of compound on rat plasma high density lipoprotein cholesterol (HDLC) level after peroral administration at 100 mg/kg dose (Experiment 1).
The subject of experiment [2] is Rattus norvegicus. The experiment can be described thus: Hypolipidemic effect on rat plasma Total cholesterol (TC) level by peroral administration at 100 mg/kg dose (Experiment 1).
Experiment [3] has as its system Rattus norvegicus. The experiment can be described thus: Hypolipidemic effect on rat plasma Total cholesterol (TC) level by peroral administration at 100 mg/kg dose (Experiment 2).
In experiment [4] the test system is Rattus norvegicus. The experiment can be described thus: Hypolipidemic effects in rat fed a high cholesterol diet (HC) by peroral administration at 100 mg/kg dose.(increase in liver weight with respect to body weight mg/g); (Experiment 1).
Experiment [5] deals with Rattus norvegicus. The experiment in a line: Hypolipidemic effects in rat fed a high cholesterol diet (HC) by peroral administration at 100 mg/kg dose.(increase in liver weight with respect to body weight mg/g); (Experiment 2).
Experiment [6] deals with Rattus norvegicus. The experiment can be described thus: Hypolipidemic effects in rat fed a normal diet by peroral administration at 100 mg/kg dose.(increase in liver weight with respect to body weight mg/g); (Experiment 1).
Experiment [7] deals with Rattus norvegicus. The experiment in a line: Hypolipidemic effects in rat fed a normal diet by peroral administration at 100 mg/kg dose.(increase in liver weight with respect to body weight mg/g); (Experiment 2).
Experiment [8] relates to Rattus norvegicus. The experiment in a line: Hypolipidemic effects of compound on rat plasma Triglyceride (TG) level after peroral administration at 100 mg/kg dose (Experiment 1).
In experiment [9] the test system is Rattus norvegicus. The experiment can be described thus: Hypolipidemic effects of compound on rat plasma Triglyceride (TG) level after peroral administration at 100 mg/kg dose (Experiment 2).
The test system of experiment [10] is Rattus norvegicus. The experiment in a line: Hypolipidemic effects of compound on rat plasma high density lipoprotein cholesterol (HDLC) level after peroral administration at 100 mg/kg dose (Experiment 2).

With `CC(C)(CCCCOc1ccc(CCCCc2ccccc2)cc1)C(=O)O`, the HDL-C worked out at 49.4 mg/dL in the experiment with Rattus norvegicus [1] and 50.9 mg/dL in the experiment on Rattus norvegicus [10]. Also, the TC stood at 159.5 mg/dL with Rattus norvegicus [2] and 132.9 mg/dL in the experiment on Rattus norvegicus [3]. The Liver weight with Rattus norvegicus [4] is reported as 55.8 mg (g of body weight)-1; with Rattus norvegicus [5], 59.1 mg (g of body weight)-1; in the experiment with Rattus norvegicus [6], 41.7 mg (g of body weight)-1; with Rattus norvegicus [7] it was 40.7 mg (g of body weight)-1. For the same compound, the TG with Rattus norvegicus [8] is 49 mg/dL; in the experiment on Rattus norvegicus [9], 33.8 mg/dL.
